According to ChEMBL document CHEMBL4251603, “Structure-activity studies on N-Substituted tranylcypromine derivatives lead to selective inhibitors of lysine specific demethylase 1 (LSD1) and potent inducers of leukemic cell differentiation” (Eur J Med Chem, 2018):
One block for each compound: values may come before it. Activity calls are given as the source filed them. No cut-off for these calls is given here.

How the values were obtained:
[1] = biological target: Lysine-specific histone demethylase 1A (Mus musculus) (UniProt Q6ZQ88); assay: Inhibition of LSD1 in mouse Hoxa9/Meis1 transformed progenitor cells assessed as induction of granulocytic differentiation at 50 to 100 nM up to 96 hrs by pappenheim staining based assay
[2] = biological target: T1, Amine oxidase [flavin-containing] A (Homo sapiens, UniProt P21397)
T1 sequence (P21397 whole entry): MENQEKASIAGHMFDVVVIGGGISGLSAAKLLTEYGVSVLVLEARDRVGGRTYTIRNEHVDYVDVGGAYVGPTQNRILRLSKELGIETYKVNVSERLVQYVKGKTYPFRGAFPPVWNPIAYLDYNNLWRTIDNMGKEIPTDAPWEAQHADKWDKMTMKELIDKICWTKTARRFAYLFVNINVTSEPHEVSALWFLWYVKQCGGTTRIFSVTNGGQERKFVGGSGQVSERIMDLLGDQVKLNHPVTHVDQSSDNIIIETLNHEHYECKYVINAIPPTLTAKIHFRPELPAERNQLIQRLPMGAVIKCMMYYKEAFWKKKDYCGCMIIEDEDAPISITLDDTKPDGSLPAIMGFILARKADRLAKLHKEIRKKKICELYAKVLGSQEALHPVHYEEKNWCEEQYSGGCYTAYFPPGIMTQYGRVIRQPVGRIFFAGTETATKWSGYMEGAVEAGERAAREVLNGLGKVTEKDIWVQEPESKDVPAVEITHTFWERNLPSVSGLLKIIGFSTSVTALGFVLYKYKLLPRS

THP-1 [3] = assay: Inhibition of colony formation in human THP1 cells at 0.5 uM after […] by light microscopic method relative to control; type: functional
[4] = biological target: Lysine-specific histone demethylase 1A (Mus musculus) (UniProt Q6ZQ88); assay: Inhibition of LSD1 in mouse Hoxa9/Meis1 transformed progenitor cells assessed as reduction in c-Kit positive cells at 100 nM after 96 hrs by flow cytometry; type: cell-based
[5] = biological target: T2, Amine oxidase [flavin-containing] B (Homo sapiens, UniProt P27338); assay: Inhibition of MAO-B (unknown origin) using beetle luciferin derived luminogenic substrate preincubated for 15 mins followed by substrate addition measured after 60 mins by MAO-Glo assay
T2 sequence (P27338 whole entry): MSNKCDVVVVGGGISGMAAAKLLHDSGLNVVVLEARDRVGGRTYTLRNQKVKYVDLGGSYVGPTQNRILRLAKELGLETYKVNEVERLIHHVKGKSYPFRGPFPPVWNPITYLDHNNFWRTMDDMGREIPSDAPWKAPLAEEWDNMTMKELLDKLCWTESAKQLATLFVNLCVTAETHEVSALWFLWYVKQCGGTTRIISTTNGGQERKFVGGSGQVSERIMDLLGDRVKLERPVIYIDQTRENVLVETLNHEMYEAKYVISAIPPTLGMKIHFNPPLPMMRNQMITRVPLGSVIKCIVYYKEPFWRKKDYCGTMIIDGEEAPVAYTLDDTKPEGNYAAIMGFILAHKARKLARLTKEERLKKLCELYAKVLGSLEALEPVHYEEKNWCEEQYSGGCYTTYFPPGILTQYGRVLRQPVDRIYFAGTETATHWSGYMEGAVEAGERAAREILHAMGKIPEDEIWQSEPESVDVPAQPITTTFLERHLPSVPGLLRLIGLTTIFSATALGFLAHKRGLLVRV

MAO-B [6] = biological target: T3, MAO-B (Homo sapiens, UniProt P27338); assay: (§1) Inhibition of MAO-B (unknown origin) at 10 uM using beetle luciferin derived luminogenic substrate preincubated for 15 mins followed by substrate addition measured after 60 mins by MAO-Glo assay relative to control; settings: MAO-B enzyme (unknown origin), probe beetle luciferin derived luminogenic substrate
T3 sequence (P27338 whole entry): T2 sequence (P27338 whole entry)

MAO-A [7] = biological target: T4, MAO-A (Homo sapiens, UniProt P21397); assay: in vitro; settings: MAO-A enzyme (unknown origin), probe beetle luciferin derived luminogenic substrate
T4 sequence (P21397 whole entry): T1 sequence (P21397 whole entry)

MAO-A [8] = biological target: T4, MAO-A; assay: Inhibition of MAO-A (unknown origin) at 1 uM using beetle luciferin derived luminogenic substrate preincubated for 15 mins followed by substrate addition measured after 60 mins by MAO-Glo assay relative to control; settings: MAO-A enzyme (unknown origin), probe beetle luciferin derived luminogenic substrate
MAO-B [9] = biological target: T3, MAO-B; assay: in vitro; settings: MAO-B enzyme (unknown origin), probe beetle luciferin derived luminogenic substrate
THP-1 [10] = assay: Inhibition of colony formation in human THP1 cells at 0.5 to 50 uM after […] by light microscopic method; type: functional, cell-based
[11] = biological target: T5, Lysine-specific histone demethylase 1A (Homo sapiens, UniProt O60341); settings: 10 uM
[12] = biological target: T5, Lysine-specific histone demethylase 1A
MAO-B [13] = biological target: T3, MAO-B; assay: Inhibition of MAO-B (unknown origin) at 250 uM using beetle luciferin derived luminogenic substrate preincubated for 15 mins followed by substrate addition measured after 60 mins by MAO-Glo assay relative to control; settings: MAO-B enzyme (unknown origin), probe beetle luciferin derived luminogenic substrate
[14] = biological target: T2, Amine oxidase [flavin-containing] B; assay: as §1; settings: 1 h, 10 µM
[15] = biological target: T5, Lysine-specific histone demethylase 1A; remark: listed apart in the source

SMILES: O=[N+]([O-])c1cccc(CN[C@H]2C[C@@H]2c2ccccc2)c1 (relative stereo)
inhibition [1]: Active
IC50 [2]: 488 nM
inhibition at 0.5 µM (THP-1 [3]): 80%
inhibition [4]: Active
IC50 [5]: 1400 nM

SMILES: c1ccc(COc2cccc(CN[C@H]3C[C@@H]3c3ccccc3)c2)cc1 (relative stereo)
inhibition at 1 h, 1 µM (MAO-A [8]): 60%
inhibition at 1 h, 1 µM (MAO-B [9]): 23%

SMILES: Fc1cc(Br)ccc1CN[C@H]1C[C@@H]1c1ccccc1 (relative stereo)
inhibition at 1 h, 1 µM (MAO-A [8]): 27%

SMILES: Fc1ccc(CN[C@H]2C[C@@H]2c2ccccc2)cc1 (relative stereo)
inhibition at 1 h, 1 µM (MAO-A [8]): 27%

SMILES: O=[N+]([O-])c1ccccc1CN[C@H]1C[C@@H]1c1ccccc1 (relative stereo)
inhibition at 1 h, 1 µM (MAO-A [8]): 18%
inhibition at 1 h, 1 µM (MAO-B [9]): 15%

SMILES: CCc1ccc(CN[C@H]2C[C@@H]2c2ccccc2)cc1 (relative stereo)
inhibition at 1 h, 1 µM (MAO-A [8]): 33%
inhibition at 1 h, 1 µM (MAO-B [9]): 12%

SMILES: Brc1cccc(CN[C@H]2C[C@@H]2c2ccccc2)c1 (relative stereo)
inhibition at 1 h, 1 µM (MAO-A [8]): 38%

SMILES: COc1ccccc1CN[C@H]1[C@@H](C)[C@@H]1c1ccccc1 (relative stereo)
inhibition (INH) [14]: Not Active
inhibition at 1 h, 10 µM (MAO-A [7]): 32%
IC50 [15]: Not Active

SMILES: Clc1ccccc1CN[C@H]1C[C@@H]1c1ccccc1 (relative stereo)
inhibition at 1 h, 10 µM (MAO-B [6]): 21%
inhibition at 1 h, 10 µM (MAO-A [7]): 62%

SMILES: Ic1ccccc1CN[C@H]1C[C@@H]1c1ccccc1 (relative stereo)
inhibition at 1 h, 1 µM (MAO-A [8]): 12%
inhibition at 1 h, 1 µM (MAO-B [9]): 16%

SMILES: Fc1ccc(CN[C@H]2C[C@@H]2c2ccccc2)cc1F (relative stereo)
inhibition at 1 h, 1 µM (MAO-A [8]): 43%

SMILES: COc1cccc(CN[C@H]2C[C@@H]2c2ccccc2)c1 (relative stereo)
inhibition (INH) [14]: Not Active
inhibition at 1 h, 10 µM (MAO-A [7]): 79%

SMILES: CC(C)(C)c1ccc(CN[C@H]2C[C@@H]2c2ccccc2)cc1 (relative stereo)
inhibition at 1 h, 1 µM (MAO-A [8]): 22%
inhibition at 1 h, 1 µM (MAO-B [9]): 27%

SMILES: COc1ncccc1CN[C@H]1[C@@H](C)[C@@H]1c1ccccc1 (relative stereo)
inhibition at 1 h, 10 µM (MAO-B [6]): 14%
IC50 [2]: 41400 nM
IC50 [15]: Not Active

SMILES: C[C@@H]1[C@H](NCc2cccc([N+](=O)[O-])c2)[C@H]1c1ccccc1 (relative stereo)
inhibition (THP-1 [10]): inactive
IC50 [2]: 237 nM
inhibition [11]: inactive
IC50 [5]: 2200 nM
Tm [12]: 45.6 °C

Further lines, with some results ahead:

inhibition at 1 h, 10 µM (MAO-B [6]): 17%
inhibition at 1 h, 10 µM (MAO-A [7]): 48%
SMILES: CC(=O)Nc1ccc(CN[C@H]2C[C@@H]2c2ccccc2)cc1 (relative stereo)

inhibition at 1 h, 1 µM (MAO-A [8]): 100%
inhibition at 1 h, 1 µM (MAO-B [9]): 44%
SMILES: Brc1ccc(COc2ccc(CN[C@H]3C[C@@H]3c3ccccc3)cc2)cc1 (relative stereo)

IC50 [2]: 310 nM
inhibition [11]: inactive
IC50 [5]: 10500 nM
Tm [12]: 47.9 °C
SMILES: C[C@@H]1[C@H](NCc2ccc(Cl)cc2)[C@H]1c1ccccc1 (relative stereo)
inhibition (THP-1 [10]): inactive

inhibition at 1 h, 250 µM (MAO-B [13]): 50%
IC50 [2]: 24700 nM
SMILES: NC(=O)c1ccc(CN[C@H]2C[C@@H]2c2ccccc2)cc1 (relative stereo)

inhibition (INH) [14]: Not Active
SMILES: COc1ncccc1CN[C@H]1C[C@@H]1c1ccccc1

inhibition (INH) [14]: Not Active
IC50 [2]: 161 nM
SMILES: c1ccc(-c2cccc(CN[C@H]3C[C@@H]3c3ccccc3)c2)cc1 (relative stereo)

inhibition at 1 h, 10 µM (MAO-B [6]): 14%
inhibition at 1 h, 10 µM (MAO-A [7]): 54%
SMILES: Cn1c(CN[C@H]2C[C@@H]2c2ccccc2)cc2ccccc21 (relative stereo)

inhibition at 1 h, 1 µM (MAO-A [8]): 93%
inhibition at 1 h, 1 µM (MAO-B [9]): 82%
SMILES: c1ccc(-c2ccc(CN[C@H]3C[C@@H]3c3ccccc3)cc2)cc1 (relative stereo)
